Results reported in patent EP4603105A1, “PHARMACEUTICAL COMPOSITION CONTAINING CYCLIC COMPOUND HAVING SELECTIVE KRAS INHIBITORY EFFECT AGAINST HRAS AND NRAS” (CHUGAI SEIYAKU KABUSHIKI KAISHA, priority 2022, dated 2024).
Where two headings read alike, the source gives them in different places.

How the values were obtained:
[1] = biological target: HRAS wild-type protein (Homo sapiens, UniProt P01112); test: Binding to HRAS by surface plasmon resonance (SPR), KD and KD ratio to KRAS
How it was run: (§1)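 Running buffer contained 10 µM GDP and 10 mM MgCl2 to keep RAS in the GDP state, with 4% DMSO at pH 7.4. Compounds were flowed at 100 µL/min in 75 s steps of rising concentration over captured biotin-Avi RAS at 30°C. Sensorgrams were fitted 1:1 for KD.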

[2] = tested on: human lung cancer strain NCI-H441; test: NCI-H441 cell proliferation inhibitory activity (CellTiter-Glo, 4 days); type: cell-based; conditions: read-out: NCl-H441 IC50
How it was run: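 Step one: dispense the test compound in serial DMSO dilutions. Step three: add the reagent and measure […].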

[3] = biological target: GDP-bound NRAS wild-type protein (Homo sapiens, UniProt P01111); test: Binding to NRAS by surface plasmon resonance (SPR), KD and KD ratio to KRAS
Chain of GDP-bound NRAS wild-type protein (P01111 whole entry): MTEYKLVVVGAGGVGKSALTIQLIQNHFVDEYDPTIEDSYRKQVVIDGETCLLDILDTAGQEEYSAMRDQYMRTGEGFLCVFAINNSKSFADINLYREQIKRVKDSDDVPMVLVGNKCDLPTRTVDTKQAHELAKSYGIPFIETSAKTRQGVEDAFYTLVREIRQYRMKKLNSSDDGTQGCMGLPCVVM
How it was run: as §1

[4] = biological target: GDP-bound KRAS wild-type protein (Homo sapiens, UniProt P01116); test: Binding to KRAS by surface plasmon resonance (SPR), dissociation constant KD
Chain of GDP-bound KRAS wild-type protein (P01116 1-188 isoform P01116-2): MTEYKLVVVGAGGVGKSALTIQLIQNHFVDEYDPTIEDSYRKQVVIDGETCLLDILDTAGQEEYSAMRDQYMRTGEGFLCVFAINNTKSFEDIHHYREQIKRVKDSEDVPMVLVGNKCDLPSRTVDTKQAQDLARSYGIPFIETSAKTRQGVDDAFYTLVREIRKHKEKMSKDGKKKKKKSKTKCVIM
How it was run: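 Biotinylated GDP-bound RAS was captured at about 100–300 RU. Running buffer: HBS pH 7.4, 10 mM MgCl2, 10 µM GDP, 1 mM DTT, 0.01% Tween 20, 4% DMSO.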

[5] = ratio of KD for HRAS wild-type protein to KD for KRAS
[6] = ratio of KD for GDP-bound NRAS wild-type protein to KD for KRAS

Chain of HRAS wild-type protein (P01112 whole entry): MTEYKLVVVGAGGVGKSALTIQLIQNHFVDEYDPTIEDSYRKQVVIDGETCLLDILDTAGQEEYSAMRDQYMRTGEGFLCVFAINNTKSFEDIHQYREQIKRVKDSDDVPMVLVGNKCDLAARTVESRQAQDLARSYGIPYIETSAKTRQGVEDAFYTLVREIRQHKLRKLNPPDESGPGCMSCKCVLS

SMILES	HRAS /KRAS [1, 5]	IC50 ([2]; NCI-H441 cells, 4 days) [nM]	NRAS /KRAS [3, 6]	Kd ([4]; Single Cycle Kinetics) [nM]	Kd ([4]; 1:1 binding model) [nM]	HRAS /KRAS ([1]; ratio of KD with respect to HRAS wild-type protein to KD with respect to KRAS)	IC50 ([2]; 50% proliferation inhibitory concentration, four days) [nM]	NRAS /KRAS ([3]; ratio of KD with respect to GDP-bound NRAS wild-type protein to KD with respect to KRAS)	Kd ([4]; Single Cycle Kinetics, 1:1 binding model) [nM]
C#CCN1CC(=O)N(C)[C@H]2C/C=C\CCN(C2=O)[C@@H](Cc2ccc(C(F)F)cc2)C(=O)N(C)CC(=O)N[C@@H](CCc2cc(F)c(C(F)(F)F)c(F)c2)C(=O)N2C[C@H](OC(C)C)C[C@H]2C(=O)N(C)C2(CCC2)C(=O)N(C)[C@@H](C(CC)CC)C(=O)N(C)[C@H](C(=O)N(C)C)CC(=O)N(C)[C@@H](CC(F)(F)F)C(=O)N[C@@H](C(C)C)C1=O [PP3496]	A (a compound having 10 or more and less than 20 is denoted as A)	11.6	A (a compound having 10 or more and less than 20 is denoted as A)	0.43	–	–	–	–	–
CC[C@H](C)[C@@H]1NC(=O)[C@H](CC(C)C)N(C)C(=O)C[C@@H](C(=O)N(C)C)N(C)C(=O)[C@H](C2CCCC2)N(C)C(=O)C2(CC(C)(C)C2)NC(=O)[C@@H]2C[C@H](C)CN2C(=O)[C@H](CCc2ccc(C(F)(F)F)c(OC)c2)NC(=O)CN(C)C(=O)[C@H](Cc2ccc(C)cc2)N2CC/C=C\C[C@@H](C2=O)N(C)C(=O)[C@@H]2CCCN2C1=O [PP2409]	B (a compound having 3 or more and less than 10 is denoted as B)	31.9	A (a compound having 10 or more and less than 20 is denoted as A)	–	0.48	–	–	–	–
CCCOC[C@H]1C(=O)N[C@@H]([C@@H](C)CC)C(=O)N(C)CC(=O)N(C)[C@H]2C/C=C\CCN(C2=O)[C@@H](Cc2ccc(C)cc2)C(=O)N(C)CC(=O)N[C@@H](CCc2ccc(C(F)(F)F)c(OC)c2)C(=O)N2C[C@H](OCC)C[C@H]2C(=O)NC2(CC(C)(C)C2)C(=O)N(C)[C@@H](CC(C)(C)C)C(=O)N(C)[C@H](C(=O)N(C)C)CC(=O)N1C [PP2712]	B (a compound having 3 or more and less than 10 is denoted as B)	6.3	A (a compound having 10 or more and less than 20 is denoted as A)	–	0.11	–	–	–	–
CCC(CC)[C@H]1C(=O)N(C)[C@H](C(=O)N(C)C)CC(=O)N(C)[C@@H](COC)C(=O)N[C@@H]([C@@H](C)CC)C(=O)N2CCC[C@H]2C(=O)N(C)[C@H]2C/C=C\CCN(C2=O)[C@@H](Cc2ccc(C(F)(F)F)cc2)C(=O)N(C)CC(=O)N[C@@H](CCc2ccc(Cl)c(Cl)c2)C(=O)N2C[C@H](OC(C)C)C[C@H]2C(=O)NC2(CC(C)(C)C2)C(=O)N1C [PP2639]	A (a compound having 10 or more and less than 20 is denoted as A)	81.6	AA (a compound having 20 or more is denoted as AA)	–	1.1	–	–	–	–
CCC[C@H]1C(=O)N[C@@H](C23CC(C2)C3)C(=O)N(C)CC(=O)N(C)[C@H]2C/C=C\CCN(C2=O)[C@@H](Cc2ccc(C(F)(F)F)cc2)C(=O)N(C)CC(=O)N[C@@H](CCc2ccc(C(F)(F)F)c(OC)c2)C(=O)N2C[C@H](OCC)C[C@H]2C(=O)N(C)C2(CCC2)C(=O)N(C)[C@@H](C2CCCC2)C(=O)N(C)[C@H](C(=O)N(C)C)CC(=O)N1C [PP3341]	A (a compound having 10 or more and less than 20 is denoted as A)	28.3	A (a compound having 10 or more and less than 20 is denoted as A)	0.46	–	–	–	–	–
CCCO[C@@H]1C[C@H]2C(=O)NC3(CC(C)(C)C3)C(=O)N(C)[C@@H](C3CCCC3)C(=O)N(C)[C@H](C(=O)N(C)CC)CC(=O)N(C)[C@@H](COCC)C(=O)N[C@@H]([C@@H](C)CC)C(=O)N3C[C@@H](C)C[C@H]3C(=O)N(C)[C@H]3C/C=C\CCN(C3=O)[C@@H](Cc3ccc(C(F)(F)F)cc3)C(=O)N(C)CC(=O)N[C@@H](CCc3ccc(C(F)(F)F)c(OC)c3)C(=O)N2C1 [PP3415]	A (a compound having 10 or more and less than 20 is denoted as A)	47.5	A (a compound having 10 or more and less than 20 is denoted as A)	2.5	–	–	–	–	–
CC[C@H](C)[C@@H]1NC(=O)[C@H](CC)N(C)C(=O)C[C@@H](C(=O)N(C)C)N(C)C(=O)[C@H](C2CCCC2)N(C)C(=O)C2(CCCC2)NC(=O)[C@@H]2CCCN2C(=O)[C@H](CCc2cc(F)c(C(F)(F)F)c(F)c2)NC(=O)CN(C)C(=O)[C@H](Cc2ccc(C(F)(F)F)cc2)N2CC/C=C\C[C@@H](C2=O)N(C)C(=O)CN(C)C1=O [PP1273]	–	–	–	–	–	B (a compound having 3 or more and less than 10 is denoted as B)	16.5	A (a compound having 10 or more and less than 20 is denoted as A)	0.12
CCC[C@H]1C(=O)N[C@@H](CC(C)C)C(=O)N(C2CC2)CC(=O)N(C)[C@H]2C/C=C\CCN(C2=O)[C@@H](Cc2ccc(C)cc2)C(=O)N(C)CC(=O)N[C@@H](CCc2ccc(C(F)(F)F)c(OC)c2)C(=O)N2C[C@H](OCC)C[C@H]2C(=O)NC2(CC(C)(C)C2)C(=O)N(C)[C@@H](C2CCCC2)C(=O)N(C)[C@H](C(=O)N(C)C)CC(=O)N1C [PP2510]	B (a compound having 3 or more and less than 10 is denoted as B)	180	A (a compound having 10 or more and less than 20 is denoted as A)	–	3.9	–	–	–	–
CCCO[C@@H]1C[C@H]2C(=O)NC3(CC(C)(C)C3)C(=O)N(C)[C@@H](C3CCCC3)C(=O)N(C)[C@H](C(=O)N(C)CC)CC(=O)N(C)[C@@H](COCC)C(=O)N[C@@H]([C@@H](C)CC)C(=O)N(C)CC(=O)N(C)[C@H]3C/C=C\CCN(C3=O)[C@@H](Cc3ccc(C)cc3)C(=O)N(C)CC(=O)N[C@@H](CCc3cc(F)c(C(F)(F)F)c(F)c3)C(=O)N2C1 [PP3419]	A (a compound having 10 or more and less than 20 is denoted as A)	12.1	A (a compound having 10 or more and less than 20 is denoted as A)	0.15	–	–	–	–	–
CCC[C@H]1C(=O)N[C@@H]([C@@H](C)CC)C(=O)N(C)CC(=O)N(C)[C@H]2C/C=C\CCN(C2=O)[C@@H](Cc2ccc(C)cc2)C(=O)N(C)CC(=O)N[C@@H](CCc2ccc(C(F)(F)F)c(Cl)c2)C(=O)N2CC[C@H](OC)[C@H]2C(=O)N(C)C2(CCC2)C(=O)N(C)[C@@H](C2CCCC2)C(=O)N(C)[C@H](C(=O)N(C)C)CC(=O)N1C [PP3237]	B (a compound having 3 or more and less than 10 is denoted as B)	6.1	A (a compound having 10 or more and less than 20 is denoted as A)	0.057	–	–	–	–	–
CCC(CC)[C@H]1C(=O)N(C)[C@H](C(=O)N(C)C)CC(=O)N(C)[C@@H](COC)C(=O)N[C@@H]([C@@H](C)CC)C(=O)N(C)CC(=O)N(C)[C@H]2C/C=C\CCN(C2=O)[C@@H](Cc2ccc(C(F)(F)F)cc2)C(=O)N(C)CC(=O)N[C@@H](CCc2ccc(Cl)c(Cl)c2)C(=O)N2C[C@H](OC3CCC3)C[C@H]2C(=O)NC2(CC(C)(C)C2)C(=O)N1C [PP2642]	A (a compound having 10 or more and less than 20 is denoted as A)	36.6	AA (a compound having 20 or more is denoted as AA)	–	0.44	–	–	–	–
CCC[C@H]1C(=O)N[C@@H]([C@@H](C)CC)C(=O)N(C)CC(=O)N(C)[C@H]2C/C=C\CCN(C2=O)[C@@H](Cc2ccc(C(F)(F)F)cc2)C(=O)N(C)CC(=O)N[C@@H](CCc2ccc(C(F)(F)F)c(OC)c2)C(=O)N2CC3(CC3)C[C@H]2C(=O)NC2(CCC2)C(=O)N(C)[C@@H]([C@@H](C)CC)C(=O)N(C)[C@H](C(=O)N(C)C)CC(=O)N1C [PP3410]	A (a compound having 10 or more and less than 20 is denoted as A)	15.6	AA (a compound having 20 or more is denoted as AA)	0.24	–	–	–	–	–
CCC[C@H]1C(=O)N[C@@H]([C@@H](C)CC)C(=O)N(C)CC(=O)N(C)[C@H]2C/C=C\CCN(C2=O)[C@@H](Cc2ccc(C)cc2)C(=O)N(C)CC(=O)N[C@@H](CCc2ccc(Cl)c(Cl)c2)C(=O)N2C[C@H](OC(C)C)C[C@H]2C(=O)NC2(CC(C)(C)C2)C(=O)N(C)[C@@H](C(CC)CC)C(=O)N(C)[C@H](C(=O)N(C)C)CC(=O)N1C [PP2537]	A (a compound having 10 or more and less than 20 is denoted as A)	75.1	AA (a compound having 20 or more is denoted as AA)	–	0.74	–	–	–	–
CCCN(C)C(=O)[C@@H]1CC(=O)N(C)[C@@H](CC(C)C)C(=O)N[C@@H]([C@@H](C)CC)C(=O)N(C)CC(=O)N(C)[C@H]2C/C=C\CCN(C2=O)[C@@H](Cc2ccc(C(F)(F)F)cc2)C(=O)N(C)CC(=O)N[C@@H](CCc2cc(F)c(C(F)(F)F)c(F)c2)C(=O)N2C[C@H](OCC)C[C@H]2C(=O)N[C@]2(C[C@@H](OC)C2)C(=O)N(C)[C@@H](C2CCCC2)C(=O)N1C [PP3352]	B (a compound having 3 or more and less than 10 is denoted as B)	12.4	A (a compound having 10 or more and less than 20 is denoted as A)	0.28	–	–	–	–	–
